# Assays:
# BRM = BRM (Homo sapiens, UniProt P51531); assay: ATPase catalytic activity assay of BRM (ADP-Glo); type: biochemical; conditions: for IC50: read-out: BRM IC50 (μM)*
# Procedure, shortened: (§1)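 In vitro biochemical ATPase assay; product ADP detected after removing leftover ATP and reconverting ADP to ATP for a luciferase signal.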
# BRG-1 = BRG-1 (Homo sapiens, UniProt P51532); assay: ATPase catalytic activity assay of BRG-1 (ADP-Glo); type: biochemical; conditions: ATPase catalytic activity, ADP-Glo; for IC50: read-out: BRG1 IC50 (μM)*; for Emax: read-out: BRG1 Max % Inhibition
# Procedure, shortened: as §1
# Sequence of BRM (P51531 whole entry): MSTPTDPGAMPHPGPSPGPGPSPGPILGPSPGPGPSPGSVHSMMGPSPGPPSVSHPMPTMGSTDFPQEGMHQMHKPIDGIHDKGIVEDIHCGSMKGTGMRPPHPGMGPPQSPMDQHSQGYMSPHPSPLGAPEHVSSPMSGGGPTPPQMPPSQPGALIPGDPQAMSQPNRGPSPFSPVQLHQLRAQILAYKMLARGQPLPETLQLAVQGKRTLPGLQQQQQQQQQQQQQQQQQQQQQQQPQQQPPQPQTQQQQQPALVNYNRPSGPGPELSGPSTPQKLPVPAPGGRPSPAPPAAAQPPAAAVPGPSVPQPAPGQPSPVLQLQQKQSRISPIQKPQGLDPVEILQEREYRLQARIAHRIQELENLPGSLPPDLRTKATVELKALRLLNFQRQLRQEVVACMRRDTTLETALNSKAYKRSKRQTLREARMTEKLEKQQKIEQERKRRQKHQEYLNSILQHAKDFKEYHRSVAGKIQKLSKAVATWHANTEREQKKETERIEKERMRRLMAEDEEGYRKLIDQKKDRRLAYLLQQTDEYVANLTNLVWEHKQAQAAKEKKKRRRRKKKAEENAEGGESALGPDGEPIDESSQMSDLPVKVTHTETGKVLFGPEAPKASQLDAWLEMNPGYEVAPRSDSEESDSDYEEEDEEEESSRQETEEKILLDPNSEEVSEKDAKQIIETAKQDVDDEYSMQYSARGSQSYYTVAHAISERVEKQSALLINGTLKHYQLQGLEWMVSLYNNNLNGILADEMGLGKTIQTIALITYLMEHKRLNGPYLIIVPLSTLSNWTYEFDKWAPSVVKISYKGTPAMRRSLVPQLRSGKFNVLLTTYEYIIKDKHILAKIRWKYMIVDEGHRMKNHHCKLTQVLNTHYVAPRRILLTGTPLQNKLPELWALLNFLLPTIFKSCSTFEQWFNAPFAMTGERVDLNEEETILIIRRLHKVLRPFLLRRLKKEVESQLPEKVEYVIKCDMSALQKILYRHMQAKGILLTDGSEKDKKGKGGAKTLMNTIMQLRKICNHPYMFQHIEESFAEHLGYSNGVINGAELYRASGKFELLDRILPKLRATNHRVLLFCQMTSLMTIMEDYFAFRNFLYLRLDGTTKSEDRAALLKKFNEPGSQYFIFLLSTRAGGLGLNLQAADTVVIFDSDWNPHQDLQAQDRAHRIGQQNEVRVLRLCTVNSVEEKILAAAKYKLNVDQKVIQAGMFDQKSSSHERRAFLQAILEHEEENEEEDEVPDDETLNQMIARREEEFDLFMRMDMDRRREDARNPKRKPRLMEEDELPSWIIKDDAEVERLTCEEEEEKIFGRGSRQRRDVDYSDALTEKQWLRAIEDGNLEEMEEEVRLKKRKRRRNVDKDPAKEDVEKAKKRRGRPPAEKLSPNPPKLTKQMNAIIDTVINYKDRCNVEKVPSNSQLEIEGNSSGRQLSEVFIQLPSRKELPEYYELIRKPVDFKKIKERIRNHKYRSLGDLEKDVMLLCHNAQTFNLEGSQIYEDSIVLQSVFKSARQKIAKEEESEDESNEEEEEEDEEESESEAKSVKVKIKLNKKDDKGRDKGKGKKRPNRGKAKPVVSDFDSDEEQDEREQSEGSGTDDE
# Sequence of BRG-1 (P51532 whole entry): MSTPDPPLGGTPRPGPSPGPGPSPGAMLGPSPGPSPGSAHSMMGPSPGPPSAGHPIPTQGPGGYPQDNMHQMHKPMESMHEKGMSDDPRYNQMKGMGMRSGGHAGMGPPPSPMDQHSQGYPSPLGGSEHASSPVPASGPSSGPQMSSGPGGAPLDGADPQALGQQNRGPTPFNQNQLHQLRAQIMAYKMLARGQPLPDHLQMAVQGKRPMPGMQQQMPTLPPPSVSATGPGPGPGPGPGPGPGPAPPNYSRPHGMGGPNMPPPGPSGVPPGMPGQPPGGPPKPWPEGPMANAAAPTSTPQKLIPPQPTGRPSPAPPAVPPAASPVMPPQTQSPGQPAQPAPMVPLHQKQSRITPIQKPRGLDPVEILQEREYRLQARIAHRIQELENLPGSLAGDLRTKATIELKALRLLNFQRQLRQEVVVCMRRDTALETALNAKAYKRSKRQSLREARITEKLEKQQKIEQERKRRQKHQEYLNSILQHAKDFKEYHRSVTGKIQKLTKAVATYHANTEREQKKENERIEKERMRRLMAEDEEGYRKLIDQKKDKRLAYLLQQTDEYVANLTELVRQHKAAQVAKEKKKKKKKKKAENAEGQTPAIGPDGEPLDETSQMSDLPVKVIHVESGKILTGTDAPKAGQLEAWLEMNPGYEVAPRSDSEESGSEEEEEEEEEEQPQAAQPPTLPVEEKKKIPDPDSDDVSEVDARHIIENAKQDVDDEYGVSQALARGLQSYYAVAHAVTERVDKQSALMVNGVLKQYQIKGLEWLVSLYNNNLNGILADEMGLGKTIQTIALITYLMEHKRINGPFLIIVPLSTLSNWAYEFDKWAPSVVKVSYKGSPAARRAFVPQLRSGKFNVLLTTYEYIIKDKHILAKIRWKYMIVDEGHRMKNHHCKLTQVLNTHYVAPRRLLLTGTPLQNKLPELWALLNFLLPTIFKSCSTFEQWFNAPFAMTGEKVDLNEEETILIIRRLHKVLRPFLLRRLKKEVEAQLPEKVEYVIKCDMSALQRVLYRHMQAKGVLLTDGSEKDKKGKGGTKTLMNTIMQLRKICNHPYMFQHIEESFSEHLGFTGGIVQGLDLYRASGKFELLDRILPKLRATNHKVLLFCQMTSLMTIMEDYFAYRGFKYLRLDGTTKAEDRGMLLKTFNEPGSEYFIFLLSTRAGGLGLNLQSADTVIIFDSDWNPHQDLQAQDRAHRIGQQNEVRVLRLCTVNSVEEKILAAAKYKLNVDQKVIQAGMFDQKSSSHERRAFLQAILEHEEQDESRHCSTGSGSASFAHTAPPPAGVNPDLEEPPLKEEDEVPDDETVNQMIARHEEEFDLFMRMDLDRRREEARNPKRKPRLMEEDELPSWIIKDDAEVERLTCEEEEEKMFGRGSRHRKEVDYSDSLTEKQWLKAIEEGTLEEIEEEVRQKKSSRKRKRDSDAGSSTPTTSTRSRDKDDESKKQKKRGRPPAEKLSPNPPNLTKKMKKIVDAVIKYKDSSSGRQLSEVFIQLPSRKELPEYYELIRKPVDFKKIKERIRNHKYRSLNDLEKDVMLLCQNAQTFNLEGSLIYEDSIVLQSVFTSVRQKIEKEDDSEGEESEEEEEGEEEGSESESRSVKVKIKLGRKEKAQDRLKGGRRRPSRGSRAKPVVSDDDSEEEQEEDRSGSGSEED
Structure (SMILES),BRM Max % Inhibition (BRM) [%],IC50 (BRM) [µM],IC50 (BRG-1) [µM],Emax (BRG-1) [%]
"C[C@@H]1CN(c2cccc(-c3csc(NC(=O)CNC(=O)c4ccc5c(c4)C4(CCO5)COC4)n3)n2)C[C@H](C)O1 [Compound 381, N-(2-((4-(6-((cis)-2,6-dimethylmorpholino)pyridin-2-yl)thiazol-2-yl)amino)-2-oxoethyl)spiro[chromane-4,3′-oxetane]-6-carboxamide]",>80,0.1 to 1,> 5,> 80
"Cn1ccc2ccc(-c3csc(NC(=O)CNC(=O)c4ccc5c(c4)C4(CCO5)COC4)n3)cc2c1=O [Compound 382, N-(2-((4-(2-methyl-1-oxo-1,2-dihydroisoquinolin-7-yl)thiazol-2-yl)amino)-2-oxoethyl)spiro[chromane-4,3′-oxetane]-6-carboxamide]",>50,0.1 to 1,> 5,> 50
"C[C@@H]1CN(c2cccc(-c3csc(NC(=O)CNC(=O)c4cc(C(C)(C)C)ncc4F)n3)c2)C[C@H](C)O1 [Compound 383, 2-(tert-butyl)-N-(2-((4-(3-((cis)-2,6-dimethylmorpholino)phenyl)thiazol-2-yl)amino)-2-oxoethyl)-5-fluoroisonicotinamide]",>85,0.1 to 1,> 5,> 85
"C[C@@H]1CN(c2cccc(-c3csc(NC(=O)CNC(=O)c4ccc5c(c4)C(C)(C#N)OCC5)n3)n2)C[C@H](C)O1 (stereo partly drawn) [Compound 384, 1-cyano-N-(2-((4-(6-((cis)-2,6-dimethylmorpholino)pyridin-2-yl)thiazol-2-yl)amino)-2-oxoethyl)-1-methylisochromane-7-carboxamide]",>90,0.1 to 1,1 to 5,> 90
"Cn1ccc2ccc(-c3csc(NC(=O)CNC(=O)c4ccc5c(c4)[C@](C)(F)COC5)n3)cc2c1=O [Compound 389, (S)-4-fluoro-4-methyl-N-(2-((4-(2-methyl-1-oxo-1,2-dihydroisoquinolin-7-yl)thiazol-2-yl)amino)-2-oxoethyl)isochromane-6-carboxamide]",>95,< 0.1,< 0.1,> 95

# Now from value to molecule:
BRM Max % Inhibition (BRM) [%],IC50 (BRM) [µM],IC50 (BRG-1) [µM],Emax (BRG-1) [%],Structure (SMILES)
>95,< 0.1,0.1 to 1,> 95,"C[C@@H]1CN(c2cccc(-c3csc(NC(=O)CNC(=O)c4ccc5c(c4)C(F)(F)COC5)n3)n2)C[C@H](C)O1 [Compound 385, N-(2-((4-(6-((cis)-2,6-dimethylmorpholino)pyridin-2-yl)thiazol-2-yl)amino)-2-oxoethyl)-4,4-difluoroisochromane-6-carboxamide]"
>95,< 0.1,0.1 to 1,> 95,"C[C@@]1(C#N)COCc2ccc(C(=O)NCC(=O)Nc3nc(-c4cccc([C@@H]5CC5(F)F)n4)cs3)cc21 [Compound 386, (R)-4-cyano-N-(2-((4-(6-((S)-2,2-difluorocyclopropyl)pyridin-2-yl)thiazol-2-yl)amino)-2-oxoethyl)-4-methylisochromane-6-carboxamide]"
>95,< 0.1,1 to 5,> 95,"C[C@@]1(C#N)COCc2ccc(C(=O)NCC(=O)Nc3nc(-c4cccc([C@H]5CC5(F)F)n4)cs3)cc21 [Compound 387, (R)-4-cyano-N-(2-((4-(6-((R)-2,2-difluorocyclopropyl)pyridin-2-yl)thiazol-2-yl)amino)-2-oxoethyl)-4-methylisochromane-6-carboxamide]"
>95,< 0.1,< 0.1,> 95,"C[C@@]1(C#N)COCc2ccc(C(=O)NCC(=O)Nc3nc(-c4cccc([C@@H]5CC5(F)F)c4)cs3)cc21 [Compound 388, (R)-4-cyano-N-(2-((4-(3-((S)-2,2-difluorocyclopropyl)phenyl)thiazol-2-yl)amino)-2-oxoethyl)-4-methylisochromane-6-carboxamide]"
